# Experimental data published in the supplement of paper PMC8967900.
# Tests used:
# Test in all cases: selective drug sensitivity score (sDSS, relative to normal bone marrow) (sDSS (score)); higher = more potent and effective on the cell line relative to normal bone marrow cells
# Details in all cases: 72 h
# MOLT-16 = tested on: MOLT-16
# RCH-ACV = tested on: RCH-ACV
# REH = tested on: REH
# P30-OHKUBO = tested on: P30-OHKUBO
# CCRF-CEM = tested on: CCRF-CEM
# MHH-CALL-2 = tested on: MHH-CALL-2
# COG-LL-402h = tested on: COG-LL-402h
# NALM-16 = tested on: NALM-16
# PF-382 = tested on: PF-382
# HAL-01 = tested on: HAL-01
# COG-LL-394h = tested on: COG-LL-394h
# SUP-B15 = tested on: SUP-B15
# COG-LL-319h = tested on: COG-LL-319h
# CCRF-HSB2 = tested on: CCRF-HSB2
# KASUMI-9 = tested on: KASUMI-9
# MHH-CALL-3 = tested on: MHH-CALL-3
# 380 = tested on: 380
# KASUMI-10 = tested on: KASUMI-10
# RPMI-8402 = tested on: RPMI-8402
# MN-60 = tested on: MN-60
# 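Note: ALL cell lines in 384-well plates, five doses spanning 10,000-fold, each plate scaled between vehicle and 100 µmol/L benzalkonium chloride controls, sDSS an adapted area-under-curve metric.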
Structure (SMILES),selective drug sensitivity score (MOLT-16),selective drug sensitivity score (RCH-ACV),selective drug sensitivity score (REH),selective drug sensitivity score (P30-OHKUBO),selective drug sensitivity score (CCRF-CEM),selective drug sensitivity score (MHH-CALL-2),selective drug sensitivity score (COG-LL-402h),selective drug sensitivity score (NALM-16),selective drug sensitivity score (PF-382),selective drug sensitivity score (HAL-01),selective drug sensitivity score (COG-LL-394h),selective drug sensitivity score (SUP-B15),selective drug sensitivity score (COG-LL-319h),selective drug sensitivity score (CCRF-HSB2),selective drug sensitivity score (KASUMI-9),selective drug sensitivity score (MHH-CALL-3),selective drug sensitivity score 380,selective drug sensitivity score (KASUMI-10),selective drug sensitivity score (RPMI-8402),selective drug sensitivity score (MN-60)
CNS(=O)(=O)Nc1nccc(Cc2c(C)c3ccc(Oc4ncccn4)cc3oc2=O)c1F (top concentration 1000 nM),1.42,0.42,-0.38,-1.18,-1.18,1.32,-1.18,0.72,-0.18,0.82,1.12,10.1,-1.18,-1.18,0.02,-1.18,-1.18,-1.18,0.12,-1.18
C[C@H]1Oc2cc(cnc2N)-c2c(nn(C)c2C#N)CN(C)C(=O)c2ccc(F)cc21 (top concentration 1000 nM),-0.32,3.38,-0.72,-0.02,-0.72,-0.72,-0.72,-0.72,-0.72,4.18,-0.72,-0.72,7.38,-0.72,-0.72,-0.72,-0.72,-0.72,-0.72,-0.72
CCc1cncnc1N1CCN(Cc2nc3cc(C(F)(F)F)ccc3[nH]2)CC1 (top concentration 10000 nM),4.86,6.46,6.26,5.26,0.36,5.56,-0.84,0.06,2.96,4.76,4.56,3.46,1.46,4.16,3.86,2.46,-0.84,2.76,5.96,1.96
CN(C)CC#Cc1ccc(OCCCc2sc(N3CCc4cccc(C(=O)Nc5nc6ccccc6s5)c4C3)nc2C(=O)O)c(F)c1 (top concentration 10000 nM),0.56,-1.54,-1.84,-1.44,32.8,1.66,26.4,-1.24,24.4,2.06,17,13.6,21.7,17.1,-1.24,19,15.7,11,27.9,-3.64
O=C(NC[C@H](O)CN1CCc2ccccc2C1)c1cc(NC2COC2)ncn1 (top concentration 10000 nM),1.54,1.24,-0.06,0.84,-0.06,0.04,0.34,-0.06,-0.06,-0.06,-0.06,1.54,9.34,1.64,-0.06,-0.06,-0.06,-0.06,-0.06,-0.06
O=C1Cc2cc(C(=O)NC3C[C@H]4CC[C@@H](C3)N4S(=O)(=O)CC3CCN(CCCC(F)(F)F)CC3)c(Cl)cc2N1 (stereo not given in full) (top concentration 10000 nM),0,0,3.5,0.5,0,0,0,0,0,0,0,0,0,0,0.6,0,0,0,0,0
CC/C(=C(\c1ccc(O)cc1)c1ccc(OCCN(C)C)cc1)c1ccccc1 [4-hydroxytamoxifen] (top concentration 10000 nM),3.02,0.72,4.02,4.12,1.52,2.12,-3.48,-2.88,2.52,1.92,2.12,0.92,-4.48,1.82,3.62,-2.58,-1.48,-1.78,2.62,-2.08
COCC1(CO)C(=O)C2CCN1CC2 (stereo not given) [APR-246] (top concentration 10000 nM),1.04,-1.16,-1.16,-0.76,-0.86,6.84,-1.16,2.44,-1.16,-0.36,-1.16,0.44,7.44,-1.16,-0.66,0.14,4.54,-1.16,-1.16,-1.16
